# Experiments:
# D. u. howardi adults = type: in vivo, Diabrotica undecimpunctata howardi; settings: TEX×PEP bait with 0.1% methomyl alone or with 1% veratrole added
# From the text: A noncucurbit carrier, 10-mesh corn grits (71% of which passed through a 2-mm screen), was obtained from Illinois Cereal Mills, Paris, Ill. (designated as pesticide carrier grits, 980). This carrier was impregnated with different levels of cucurbitacins by addition of varying amounts of a chloroform extract of AND×MAX fruit containing 0.12% cucurbitacins B and D (Metcalf, et al., Proc. Natl. Acad. Sci. USA, 77:3769-3772 (1980), Metcalf, et al., Environ. Entomol., 11:921-927 (1982)). The cucurbitacin-containing areas were scraped from plates, extracted in anhydrous methanol, centrifuged, and the UV absorption at 210 nm determined by UV spectrophotometry. Content of cucurbitacins was quantified from standard curves of pure cucurbitacins B, D, E and I, and E-glycoside (Metcalf, et al., Proc. Natl. Acad. Sci. USA, 77:3769-3772 (1980), Metcalf, et al., Environ. Entomol., 11:921-927 (1982)).
# The various dried, ground, and insecticide-treated baits were given preliminary field evaluation by placing uniform amounts in petri-dish halves (150-mm diameter) that were placed at random on the ground in cucurbit and corn rows heavily infested ith SCR, WCR, and SCB adults. Ten dishes were used for each treatment; the maximum dosage of dried baits used was 300 mg per dish, equivalent to […]. Mortality counts of adult beetles in the dishes were made after 20-40 h.
# [1] = system: western corn rootworm (WCR) adults; test: Sticky trap attraction in sweet corn plots (Example 1); type: in vivo, Diabrotica virgifera virgifera; settings: for Mean number of WCR per trap (±standard deviation): n = 4
# Method in brief: (§1)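 Field trapping in sweet-corn plots beside a Blue Hubbard squash trap crop; lures on mineral-oil-impregnated cotton wicks atop sticky paper-carton traps on 1-m posts, 4 replicates in randomized complete blocks. Beetles counted after 24 h; VIPAE/VIP/TIC mixtures and single components at 1–300 mg per trap, ANOVA/Duncan at P=0.05.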
# [2] = system: southern corn rootworm (SCR) adults; test: as above; type: in vivo, Diabrotica undecimpunctata howardi; settings: for Mean number of SCR per trap (±standard deviation): n = 4
# Method in brief: as §1
# [3] = August 4, second year, each compound 20 mg per trap
# [4] = August 7, second year, each compound 20 mg per trap
# [5] = August first year, South Farms, 24 h, single compounds 100 mg per trap, mixture 20 mg of each component
# [6] = August first year, single compounds 100 mg per trap, mixture 20 mg each component
smiles,measurement,setting,value
"COc1ccccc1OC [Veratrole, 1,2-dimethoxybenzene]",mean (±SD) dead SCR beetles for 10 dishes,D. u. howardi adults,63.1±39.9
same,relative percent activity (WCR) as compared with the highest mean value for the test date,[1]; [3],39%
same,Mean number of WCR per trap (±standard deviation),[1]; [3],20.0 ± 5.7 per trap
same,relative percent activity (WCR) as compared with the highest mean value for the test date,[1]; [4],59%
same,Mean number of WCR per trap (±standard deviation),[1]; [4],18.5 ± 7.2 per trap
same,Mean number of WCR per trap (±standard deviation),[1]; [5],1.5 ± 1.0 per trap
same,relative percent activity of the mean WCR trap catch as compared with the highest mean value in the column,[1]; [6],22%
same,relative percent activity (SCR) as compared with the highest mean value for the test date,[2]; [3],15%
same,Mean number of SCR per trap (±standard deviation),[2]; [3],5.8 ± 3.4 per trap
same,relative percent activity (SCR) as compared with the highest mean value for the test date,[2]; [4],20%
same,Mean number of SCR per trap (±standard deviation),[2]; [4],8.8 ± 2.l
same,Mean number of SCR per trap (±standard deviation),[2]; [5],6.8 ± 3.6 per trap
same,relative percent activity of the mean SCR trap catch as compared with the highest mean value in the column,[2]; [6],33%
